# Experimental data as given in patent US20140377219A1, “HIV INHIBITORS” (New york Blood Center, Inc., priority 2011, published 2014).
# Where two headings read alike, the source gives them in different places.
# Experiments:
# HIV-1MN gp120 and sCD4 = biological target: T1, HIV-1MN gp120 and sCD4 (Human immunodeficiency virus type 1 group M subtype B, UniProt P05877); test: biochemical; type: binding; settings: read-out: IC50 (μM ± SD), interaction HIV-1MN gp120 and sCD4
# T1 construct: recombinant gp120 from HIV-1IIIB and HIV-1MN
# Description: (§1) The compounds were incubated at graded concentrations with sCD4 (0.25 μg/ml) in the wells of polystyrene plates containing recombinant gp120, which was captured by coating the plates with a sheep anti-gp120 antibody D7324.
# HIV-1IIIB gp120 and sCD4 = biological target: T2, HIV-1IIIB gp120 and sCD4 (Human immunodeficiency virus type 1 group M subtype B, UniProt P03375); test: biochemical; type: binding; settings: read-out: IC50 (μM ± SD), interaction HIV-1IIIB gp120 and sCD4
# T2 construct: recombinant gp120 from HIV-1IIIB and HIV-1MN
# Description: as §1
# gp120 = gp120 (Human immunodeficiency virus type 1 group M subtype B, UniProt P03375); test: biochemical; type: binding, HIV-1
# PBMC = test: Cytotoxicity in PBMC (XTT); type: cell-based; settings: for CC50: PBMC, XTT, seven days, read-out: PBMC CC50; for % toxicity at that dose (number in parenthesis), PBMC: at the dose given as CC50 bound
# Description: (§2) Cytotoxicity of small molecules in MT-2 cells and PBMC was measured by the XTT ((sodium 3′-(1-(phenylamino)-carbonyl)-3,4-tetrazolium-bis(4-methoxy-6-nitro)benzene-sulfonic acid hydrate)) method. Briefly, for MT-2 cells, 100 μl of a small molecule at graded concentrations was added to an equal volume of cells (10^5 cells/ml) in 96-well plates followed by incubation at 37° C. for four days, which ran parallel with the neutralization assay in MT-2 (except medium was added instead of virus). In the case of PBMC, 5×10^5 cells/ml was used and the cytotoxicity was measured after seven days. […] The percentage cytotoxicity and the CC50 values were calculated as described above.
# MT-2 cells = test: Cytotoxicity in MT-2 cells (XTT); type: cell-based; settings: for CC50: MT-2 cells, XTT, four days, read-out: MT-2 Cells CC50
# Description: as §2
# CD4 = CD4 (Homo sapiens, UniProt P01730); test: Surface plasmon resonance (SPR), ligand CD4; type: binding
# [1] = system: CD4-dependent virus (ADA); type: cell-based; settings: ADA in Cf2Th-CD4+-CCR5+ target cells, FIG. 5; read-out: IC50, inhibition of the CD4-dependent virus
# HIV-1 MN = test: Multi-cycle neutralization assay in MT-2 cells
# Description: (§3) In brief, 1×10^4 MT-2 cells were infected with HIV-1 at 100 TCID50 (50% tissue culture infective dose) (0.01MOI) in 200 μl medium in the presence or absence of small molecules at graded concentrations and incubated overnight. The culture supernatants were then removed and replaced with fresh media. On the fourth day post-infection, 100 μl of culture supernatants were collected from each well, mixed with equal volume of 5% Triton X-100 and tested for p24 antigen by sandwich-ELISA. The percent inhibition of p24 production and IC50 values were calculated by the GraphPad Prism software (GraphPad Software Inc.).
# HIV-1 BaL = test: Neutralization assay in PBMC (p24 ELISA)
# Description: (§4) PBMCs were isolated from the blood of healthy donors at the New York Blood Center by standard density-gradient centrifugation using Histopaque-1077 (Sigma-Aldrich). The cells were cultured at 37° C. for 2 h. Non-adherent cells were collected and resuspended at 5×10^6 cells/ml in RPMI-1640 medium containing 10% (v/v) fetal bovine serum, 5 μg/ml of phytohemagglutinin, and 100 U/ml of IL-2 (Sigma-Aldrich), followed by incubation at 37° C. for three days.
# [2] = system: primary HIV-1 isolate 93TH060 (subtype E, R5); test: Neutralization assay in PBMC (p24 ELISA); settings: read-out: IC50 (μM) ± S.D., inhibitory activity on infection
# Description: (§5) The inhibitory activity of small molecules on infection by primary HIV-1 isolates was determined. PBMCs were isolated from the blood of healthy donors at the New York Blood Center by standard density-gradient centrifugation using Histopaque-1077 (Sigma-Aldrich). The cells were cultured at 37° C. for 2 h. Non-adherent cells were collected and resuspended at 5×10^6 cells/ml in RPMI-1640 medium containing 10% (v/v) fetal bovine serum, 5 μg/ml of phytohemagglutinin, and 100 U/ml of IL-2 (Sigma-Aldrich), followed by incubation at 37° C. for three days.
# HIV-1 RF = test: Multi-cycle neutralization assay in MT-2 cells
# [3] = system: AZT-resistant (AZT-R) HIV-1 strain; test: Multi-cycle neutralization assay in MT-2 cells
# HIV-1 SF2 = test: Multi-cycle neutralization assay in MT-2 cells
# [4] = system: primary HIV-1 isolate 93BR029 (clade F, R5); test: Neutralization assay in PBMC (p24 ELISA); settings: read-out: IC50 (μM) ± S.D., inhibitory activity on infection
# Description: as §4
# HIV-1 SF162 = test: Neutralization assay in PBMC (p24 ELISA); settings: read-out: IC50 (μM) ± S.D., inhibitory activity on infection
# Description: as §4
# [5] = system: primary HIV-1 isolate RU570 (clade G, R5); test: Neutralization assay in PBMC (p24 ELISA); settings: read-out: IC50 (μM) ± S.D., inhibitory activity on infection
# Description: as §4
# HIV-1 89.6 = test: Neutralization assay in PBMC (p24 ELISA); settings: read-out: IC50 (μM) ± S.D., inhibitory activity on infection
# Description: as §5
# [6] = system: primary HIV-1 isolate BCF02 (Group 0, R5); test: Neutralization assay in PBMC (p24 ELISA); settings: read-out: IC50 (μM) ± S.D., inhibitory activity on infection
# Description: as §5
# [7] = Cytotoxicity in PBMC (XTT); type: cell-based; settings: human; PBMC, XTT, seven days
# Description: as §2
# [8] = Cytotoxicity in MT-2 cells (XTT); type: cell-based; settings: human; MT-2 cells, XTT, four days
# Description: as §2
# [9] = system: primary HIV-1 isolate 92US657 (subtype B, R5); test: Neutralization assay in PBMC (p24 ELISA); settings: read-out: IC50 (μM) ± S.D., inhibitory activity on infection
# Description: as §4
# [10] = system: primary HIV-1 isolate 92UG031 (subtype A, R5); test: Neutralization assay in PBMC (p24 ELISA); settings: read-out: IC50 (μM) ± S.D., inhibitory activity on infection
# Description: as §5
# [11] = system: laboratory-adapted HIV-1 IIIB strain; test: microbe, parasite or virus in culture; settings: Human immunodeficiency virus 1, IIIB, MT2, read-out: IC50 (μM) ± S.D., inhibitory activity on infection
# Description: as §3
# [12] = system: HIV-1 RF/L-323-12-3 (protease resistant isolate); test: Multi-cycle neutralization assay in MT-2 cells
# [13] = system: primary HIV-1 isolate 93IN101 (subtype C, R5); test: Neutralization assay in PBMC (p24 ELISA); settings: read-out: IC50 (μM) ± S.D., inhibitory activity on infection
# Description: as §5
# TZM-bl cells = test: Cytotoxicity in TZM-bl cells (XTT); type: cell-based
# Description: The cytotoxicity of small molecules in TZM-bl cells was measured by a colorimetric method using XTT (sodium 3′-(1-(phenylamino)-carbonyl)-3,4-tetrazolium-bis(4-methoxy-6-nitro)benzenesulfonic acid hydrate), a light yellowish tetrazolium dye. Briefly, 100 μl of a compound at graded concentrations was added to equal volume of cells (10^5/ml) in wells of 96-well plates followed by incubation at 37° C. for 3 days and addition of XTT (PolySciences, Inc., Warrington, Pa.).
# [14] = system: laboratory-adapted HIV-1 IIIB strain
# Description: as §3
# [15] = system: pNL4-3 gp41 (36G) V38E, N42S (fusion resistant isolate); type: cell-based, HIV-1; settings: subtype B, MT-2, X4, fusion resistant isolate, read-out: IC50 (μM) ± S.D., inhibitory activity on infection
# [16] = Human immunodeficiency virus 1, MT2, read-out: IC50 (μM) ± S.D., inhibitory activity on infection
# [17] = Human immunodeficiency virus 1, PBMC
# [18] = at the dose given as CC50 bound
# [19] = captured ELISA, sCD4 0.25 μg/ml
structure (smiles),measurement,setting,value
CC1(C)CC(NC(=O)C(=O)Nc2ccc(Br)cc2)CC(C)(C)N1 [NBD-557],IC50,HIV-1MN gp120 and sCD4,4.21 ± 1.1 µM
same,IC50,HIV-1IIIB gp120 and sCD4,3.08 ± 0.6 µM
same,Kd,gp120,42 µM
same,Koff (s − 1),gp120,4.7 × 10−2 s − 1
same,Rmax (RU),gp120,1.48 RU
same,CC50,PBMC,603 µM
same,CC50,MT-2 cells,223 µM
same,binding to CD4,CD4; SPR,not to CD4
same,IC50,[1],13.4 µM
"Cc1nc(C(NC(=O)C(=O)Nc2ccc(Cl)c(F)c2)C2CCCCN2)sc1CO (stereo not shown) [Compound 27, N^1-(4-chloro-3-fluorophenyl)-N^2-((5-(hydroxymethyl)-4-methylthiazol-2-yl)(piperidin-2-yl)methyl)oxalamide.2HCl]",IC50,HIV-1 MN; [16],18.5 ± 1.8 µM
same,IC50,"HIV-1 BaL; Human immunodeficiency virus 1, BAL, read-out: IC50 (μM) ± S.D., inhibitory activity on infection",43.8 ± 5 µM
same,IC50,[2]; [17],11 ± 0.5 µM
same,IC50,HIV-1 RF; [16],13.8 ± 2.3 µM
same,IC50,[3]; [16],6.5 ± 0.9 µM
same,IC50,HIV-1 SF2; [16],35.7 ± 2.6 µM
same,IC50,[4]; [17],9.9 ± 0.8 µM
same,IC50,HIV-1 SF162; [17],16.3 ± 1.7 µM
same,IC50,[5]; [17],15.3 ± 1.7 µM
same,IC50,HIV-1 89.6; [17],3.2 ± 0.7 µM
same,IC50,[6]; [17],~84 µM
same,CC50 at 7 days,[7],> 104 µM
same,"% toxicity at that dose (number in parenthesis), PBMC",PBMC,(40%)
same,CC50 at 4 days,[8],~83 µM
same,IC50,[9]; [17],12.5 ± 2.4 µM
same,IC50,[10]; [17],10.7 ± 0.3 µM
same,IC50,[11],4.1 ± 0.7 µM
same,IC50,[12]; [16],6.2 ± 0.9 µM
same,IC50,[13]; [17],~84 µM
"Cc1ccc(NC(=O)C(=O)NC(c2nc(C)c(CCO)s2)C2CCCCN2)cc1F.Cl (stereo not shown) [Compound 38, N^1-(3-fluoro-4-methylphenyl)-N^2-((5-(2-hydroxyethyl)-4-methylthiazol-2-yl)(piperidin-2-yl)methyl)oxalamide.HCl]",IC50,"HIV-1 MN; read-out: IC50 (μM) ± S.D., inhibitory activity on infection, MN, subtype B, MT-2, X4, laboratory strain",14.9 ± 2.6 µM
same,IC50,"HIV-1 BaL; read-out: IC50 (μM) ± S.D., inhibitory activity on infection, BaL, subtype B, R5, laboratory strain",30.3 ± 1.4 µM
same,IC50,"[2]; 93TH060, subtype E, PBMC, R5, primary isolate",14.7 ± 0.7 µM
same,CC50,"TZM-bl cells; TZM-bl cells, XTT, 3 days, read-out: TZM-bl cells CC50 (μM ± SD)",> 85 µM
same,"% toxicity at that dose (number in parenthesis), TZM-bl cells",TZM-bl cells; [18],40%
same,IC50,"HIV-1 RF; read-out: IC50 (μM) ± S.D., inhibitory activity on infection, RF, subtype B, MT-2, R5X4, laboratory strain",12.4 ± 1.4 µM
same,IC50,"[3]; read-out: IC50 (μM) ± S.D., inhibitory activity on infection, AZT-R, subtype B, MT-2, X4, RT-resistant isolate",14.5 ± 1.5 µM
same,IC50,"HIV-1 SF2; read-out: IC50 (μM) ± S.D., inhibitory activity on infection, SF2, subtype B, MT-2, R5X4, laboratory strain",27.6 ± 1.7 µM
same,IC50,"[4]; 93BR029, subtype F, PBMC, R5, primary isolate",8.6 ± 0.4 µM
same,IC50,"HIV-1 SF162; SF162, subtype B, PBMC, R5, laboratory strain",16.5 ± 4 µM
same,IC50,"[14]; read-out: IC50 (μM) ± S.D., inhibitory activity on infection, IIIB, subtype B, MT-2, X4, laboratory strain",5.3 ± 1.7 µM
same,IC50,"[14]; read-out: MT-2 Cells IC50 (μM ± SD), multi-cycle assay, MT-2 cells, HIV-1 IIIB",3.7 ± 0.7 µM
same,IC50,"[5]; RU570, subtype G, PBMC, R5, primary isolate",15.8 ± 0.9 µM
same,IC50,"HIV-1 89.6; 89.6, subtype B, PBMC, R5X4, laboratory strain",14.7 ± 1.1 µM
same,IC50,"[6]; BCF02, Group 0, PBMC, R5, primary isolate",~87 µM
same,CC50,PBMC,> 64 µM
same,"% toxicity at that dose (number in parenthesis), PBMC",PBMC,0%
same,CC50,MT-2 cells; listed as NBD-110017,> 87 µM
same,CC50,MT-2 cells,~85 µM
same,"% toxicity at that dose (number in parenthesis), MT-2 cells",MT-2 cells; [18],30%
same,IC50,"[9]; 92US657, subtype B, PBMC, R5, primary isolate",6.8 ± 0.7 µM
same,IC50,"[10]; 92UG031, subtype A, PBMC, R5, primary isolate",10.1 ± 1.8 µM
same,IC50,[15],8.4 ± 0.4 µM
same,IC50,"[12]; read-out: IC50 (μM) ± S.D., inhibitory activity on infection, HIV-1 RF/L-323-12-3, subtype B, MT-2, X4, protease resistant isolate",10.2 ± 0.4 µM
same,IC50,"[13]; 93IN101, subtype C, PBMC, R5, primary isolate",> 87 µM
CN1C(=O)[C@@H](c2cc(Cl)c(O)c(Cl)c2)NC(=O)[C@@H]2NC(=O)[C@@H](c3cc(Cl)c(O)c(Cl)c3)NC(=O)[C@H](NC(=O)C(=O)c3cc(Cl)c(O)c(Cl)c3)Cc3c[nH]c4c(cccc34)-c3cc2cc(c3O)Oc2ccc(cc2)C[C@H]1C(=O)N[C@@H](C(=O)O)c1ccc(O)cc1 [Chloropeptin],IC50,HIV-1MN gp120 and sCD4; [19],0.31 ± 0.2 µM
same,IC50,HIV-1IIIB gp120 and sCD4; [19],0.31 µM
same,Kd,"gp120; SPR, ligand gp120",2.5 µM
same,Rmax (RU),"gp120; SPR, ligand gp120",1160 RU
same,koff,"gp120; SPR, ligand gp120",0.011 s⁻¹
same,Kd,CD4,5.4 µM
same,Rmax (RU),"CD4; SPR, ligand CD4",76.8 RU
same,koff,CD4; read-out: Koff (s − 1),0.018 s⁻¹
